Marks after values point to notes of the source that are not given here.
Legend:
Format in all cases: in vivo, hamster
[1] = Body weight of hamsters with cerebellar ataxia during administration; conditions: compared between groups administered with PBS, NK-4 and IGF-1
[2] = tested on: hamsters with cerebellar ataxia; test: Concentration of glutamic acid in cerebrospinal fluid (CSF); conditions: 10-weeks of age, 25 μg/kg body weight
Excerpt: (§1) Since NK-4 was confirmed to have a neurodegenerative inhibitory action in Experiment 1, hamsters with cerebellar ataxia (cerebellar ataxia is called “cerebellar A” and hamsters with cerebellar ataxia are called “hamsters with cerebellar A”, hereinafter) as a suitable model for human neurodegenerative diseases (e.g., spinal cerebellar degeneration) were subjected to examine the influence of NK-4 administration on their behaviors and brain tissues. Twenty-five hamsters with natural mutation (Nna1 inhibition), which are known to lose Purkinje's cells after three-weeks of age and then induce a spontaneous onset of kinetic motor ataxia after seven-weeks of age (see Akita K. et al., “J. Neurogenetics”, Vol. 21, pp. 19-29, 2007), had been fed at Hayashibara Biochemical Laboratories., Inc., Okayama, Japan, were randomly allocated to the test groups 1 to 5, five heads in each group, as shown in Table 2. Prior to the onset of cerebellar A (at three-weeks of age), PBS was started to administer to the hamsters in the test group 1 at a dose of 10 ml/kg/day. Prior to the onset of cerebellar A (at three-weeks of age), NK-4 was started to be administered to the hamsters in the test groups 2 to 4 at a daily dose of 20 μg/kg, 100 μg/kg or 500 μg/kg. “IGF-1, human, a product name of insulin-like growth factor, commercialized by Assaypro LLC, MO, USA. These administered ingredients were intraperitoneally administered daily to hamsters once a day up to 10-weeks of age. The degree of symptom of cerebellar A and the improvement effect on the symptom by NK-4 were evaluated with an index of improvement in motor coordination of hamsters by conducting once a week the later described rotarod test and the slant tolerance test. At the age of 10-weeks, the hamsters were subjected to counting the falling down frequency and extracted their brains, which were then histologically evaluated. In parallel, the concentration of glutamic acid in the bloods and cerebrospinal fluids (CSF) of the hamsters was assayed. As a test group 6, five normal hamsters, with the same age as the hamsters with cerebellar A used in the test groups 1 to 5, were provided and tested similarly as the hamsters with cerebellar A in such a manner of intraperitoneally administering PBS to them at a dose of 10 ml/kg/day once a day up to 10-weeks of age.
The content of glutamic acid, which is used for synthesizing gamma-amino butyric acid (GABA) as a main excitatory neurotransmitter and inhibitory neurotransmitter that regulate higher-order functions such as memory/learning in mammalian central nervous system, was assayed. In harvesting the brains from the above hamsters, they were blooded from their postcavas, followed by collecting CSF for use in the later described assay for glutamic acid concentration. […]

[3] = tested on: hamsters with cerebellar ataxia; test: Falling down frequency of hamsters with cerebellar ataxia; conditions: cerebellar ataxia hamsters, 10-weeks of age; 25 μg/kg body weight i.p. once a day
Excerpt: as §1
Hamsters, 10-weeks of age, were respectively housed in a breeding cage. Their falling down frequencies within one minute were counted under a macroscopic observation and the data from five heads in each group were averaged. For reference, the hamsters with cerebellar A used in this experiment are known to increase their falling down frequencies after nine weeks of age.
(§2) Similarly as in Experiment 2, 130 hamsters with cerebellar ataxia, born within the same week and 3-weeks of age, were randomly divided into 13 groups, consisting of 10 hamsters, respectively. […] The hamsters (10 heads) in the remaining one group were intraperitoneally administered from their age of 3- to 10-weeks with a sterilized 10% maltose solution (pyrogen-free) in an amount of 0.5 ml/hamster (control) once a day for 56 days At the next day after the end of the administration, body weight of each hamster was weighed, followed by performing rotarod test, slope endurance test, and counting of falling down frequency. The types of compounds applied to each group and the results are in Table 25.

[4] = tested on: hamsters with cerebellar ataxia; test: Rotarod test in hamsters with cerebellar ataxia; conditions: for Delayed days until the onset of cerebellar ataxia in hamster: 25 μg/kg body weight; for time (sec) endured until falling from rotarod apparatus: cerebellar ataxia hamsters, 25 μg/kg body weight i.p. once a day
Excerpt: as §1
As an index for coordinated movement, it was used a duration time of hamster's movement to staying on a rotarod by locomotion in synchronization with the turn of the rotarod; placing a hamster on an apparatus with a rotarod (having a diameter of 60 mm, prepared by Hayashibara Biochemical Laboratories, Inc., Okayama, Japan), turning at a constant rate of six rpm, and measuring the time until the hamster falls down from the rotarod (see Fernandez et al., “Proc. Natl. Acad. Sci. USA”, Vol. 95, pp. 1253-1258, 1998). The test was repeated six times for each hamster, where five-times of tests starting from the initiation of the test were made as a preliminary examination, and the time until each hamster fell down from the rotarod (called “falling time”, hereinafter) was measured, followed by averaging the falling times for each group consisting of five heads. The falling time was measured until 180 seconds. Based on the results, the relationship between the age and the falling time for each hamster with cerebellar A (test group 1) administered with PBS was graphed. […]
Similarly as in Experiment 2, 130 hamsters with cerebellar ataxia, born within the same week and 3-weeks of age, were randomly divided into 13 groups, consisting of 10 hamsters, respectively. […]

[5] = tested on: hamsters with cerebellar ataxia; test: Slant tolerance test in hamsters with cerebellar ataxia; conditions: cerebellar ataxia hamsters, 25 μg/kg body weight i.p. once a day
Excerpt: as §1
Hamsters were placed on a slope-angle-variable-board while keeping their heads upward, followed by determining the angle for allowing the hamsters to keep staying thereupon for five seconds for use as an endurable-slant-slope-angle test (see Rivlin et al., “J. Neurosurg.”, Vol. 47, pp. 577-581, […]). The initial slope angle was set to 25 degrees and increased by 5 degrees step by step. When a tested hamster in a static condition fell down within five seconds, the slope angle was decreased by one degree step by step, followed by judging the angle that allows the hamster to keep static staying for five seconds, measuring the tolerable slant-slope-angle, and averaging the data for five heads in each group.
as §2

[6] = tested on: hamsters with cerebellar ataxia; test: Histological evaluation of cerebellum of hamsters with cerebellar ataxia; conditions: 10-weeks of age, 25 μg/kg body weight
Excerpt: as §1
Hamsters, 10-weeks of age, after completion of test on coordinated movement such as a confirmation of falling down frequency were intraperitoneally received 50 mg/kg pentobarbital, bled from their postcavas to let them die, and extracted their cerebra and cerebella, followed by fixing them with a 10% by volume of formalin solution. The resulting cerebra and cerebella were photographed with a digital camera apart from a prescribed high position and measured diameters in sagittal and horizontal directions for each photograph. The volumes of cerebra and cerebella were respectively determined by calculating with the formula, (length of sagittal direction)^2×(length of horizontal direction)×0.5; and the data from five heads in each group were averaged. The hamsters with cerebella A used in this experiment are known to reduce cell density of Purkinje's cells and granular cells. Cerebellar slices, which had been cut out in sagittal direction, were stained with hematoxylin-eosin stain, and microscopically observed to count the total number of Purkinje's cells within a Purkinje's cell layer ([…] I to X) and the number of granular cells per unit area, and to confirm subjects in which demyelination was observed within their cerebellar white matters. The results are in Table 5 in parallel.

IGF-1: insulin-like growth factor, human, commercialized by Assaypro LLC
body weight of hamsters with cerebellar A, weighed once every week up to 10-weeks of age [1]: no significant difference | Concentration of glutamic acid in cerebrospinal fluid [2]: 7.9 ± 2.0 µM | Falling down frequency (frequency/min) [3]: 11.4 ± 0.4 frequency/min | Delayed days until the onset of cerebellar ataxia in hamster ([4]; 5-Weeks): 1 days | Delayed days until the onset of cerebellar ataxia in hamster ([4]; 6-Weeks): 8 days | Delayed days until the onset of cerebellar ataxia in hamster ([4]; 7-Weeks): 1 days | Delayed days until the onset of cerebellar ataxia in hamster ([4]; 8-Weeks): 1 days | Delayed days until the onset of cerebellar ataxia in hamster ([4]; 9-Weeks): 0 days | Delayed days until the onset of cerebellar ataxia in hamster ([4]; 10-Weeks): 0 days | time (sec) endured until falling from rotarod apparatus ([4]; 4-Weeks): 126 ± 11 s | time (sec) endured until falling from rotarod apparatus ([4]; 5-Weeks): 63 ± 13 s | time (sec) endured until falling from rotarod apparatus ([4]; 6-Weeks): 43 ± 11 s | time (sec) endured until falling from rotarod apparatus ([4]; 7-Weeks): 21 ± 5 s | time (sec) endured until falling from rotarod apparatus ([4]; 8-Weeks): 9 ± 2 s | time (sec) endured until falling from rotarod apparatus ([4]; 9-Weeks): 6 ± 1 s | time (sec) endured until falling from rotarod apparatus ([4]; 10-Weeks): 6 ± 1 s | endurable-slant-slope-angle (degree) ([5]; 4-Weeks): 44.4 ± 0.2 degree | endurable-slant-slope-angle (degree) ([5]; 5-Weeks): 41.8 ± 0.6 degree | endurable-slant-slope-angle (degree) ([5]; 6-Weeks): 40.2 ± 0.7 degree | endurable-slant-slope-angle (degree) ([5]; 7-Weeks): 41.6 ± 0.8 degree | endurable-slant-slope-angle (degree) ([5]; 8-Weeks): 35.6 ± 0.2 degree | endurable-slant-slope-angle (degree) ([5]; 9-Weeks): 35.2 ± 0.6 degree | endurable-slant-slope-angle (degree) ([5]; 10-Weeks): 33.0 ± 0.9 degree | Cerebellar volume (mm^3) ([6]; cerebellar ataxia hamsters): 77.6 ± 6.1* mm^3 | Number of Purkinje cells (cells) ([6]; cerebellar ataxia hamsters): 71 ± 16 cells | Number of granular cells (cells/20000 μm^2) ([6]; cerebellar ataxia hamsters): 371 ± 11 cells/20000 μm^2 | Number of subject (head) with apparent demyelination in cerebellar white matter ([6]; five heads per group): 3 head

From patent US20120035187A1 (priority 2009, published 2012)
